Columns and labels:
[1] = tested on: p-AKT1/2/3-S473 in KPL4 breast tumour cell line; experiment: Cellular p-AKT1/2/3-S473 assay; assay type: cell-based; conditions: KPL4 breast tumour cell line, 2 hours treatment; read-out: pAKT-S743 median IC50
Method: The molecular mechanism of action was investigated in a set of experiments to assess the inhibition of the PI3K-AKT-mTOR pathway in responsive cell lines such as KPL4 breast tumour cell line (PIK3CAH1047R, HER20/E and hormone independent). The phospho-substrates of PI3K-AKT-mTOR axis were used as the read-outs to reflect pathway inhibition. Cells were seeded at 60-80% confluency per well in 96-well cell culture plates. After overnight incubation at 37° C. 5% CO2, cells were treated with compounds and vehicle at 37° C. for 2 hours. […] All measurements where at least done in duplicates and confirmed by independent repetition.
Alternatively pAKT-S473 was measured using the “Akt Duplex” of the MULTI-SPOT® Assay System (Fa. Meso Scale Discovery, Cat# N41100B-1) following manufacturers instructions. Each assay used 20 μg of protein extract and measured total AKT and p-AKT content simultaneously in one well. All measurements where at least done in duplicates and confirmed by independent repetition. Values for P-AKT are expressed as percentage of P-AKT level compared to total-AKT content of the extracts.

[2] = tested on: KPL-4 breast cancer cell line; experiment: Tumor cell proliferation assay (CellTiter-Glo, 72 h), KPL-4; assay type: cell-based
Method: Biological Assay 4.0: Tumor Cell Proliferation Assays
(§1) Compounds were tested in a cell-based assay that measures the capacity of the compounds to inhibit tumour cell proliferation following a 72h drug exposure. Cell viability is determined using CellTiter-Glow® (CTG, Promega, cat# G7571/2/3). The CellTiter-Glo® Luminescent Cell Viability Assay is a homogeneous method to determine the number of viable cells in culture. Detection is based on using the luciferase reaction to measure the amount of ATP from viable cells. The amount of ATP in cells correlates with cell viability. Within minutes after a loss of membrane integrity, cells lose the ability to synthesize ATP, and endogenous ATPases destroy any remaining ATP; thus the levels of ATP fall precipitously.
(§2) For each cell line assayed, cells were plated onto a separate plate for determination of […] at t=0 hour and t=72 hour time points. Following overnight incubation at 37° C., chemiluminescence values for the t=0 samples were determined after adding 10 μl medium and 100 μl CTG solution according to manufacture protocol. Plates for the t=72 hour time points were treated with compounds diluted into growth medium at ten times final concentration added in 10 μL to the cell culture plate. Cells were then incubated for 72 hours at 37° C. Chemiluminescence values for the t=72 hour samples were determined. […] Experiments were controlled using a reference compound as standard.

MCF7 = experiment: Tumor cell proliferation assay (CellTiter-Glo, 72 h), MCF7; assay type: cell-based; conditions: Homo sapiens, 72h drug exposure
Method: as §1
as §2, with “Cells were plated at 3000-5000 cells/well (depending on the cell lines) in 90 μL growth medium on MTPs (Corning; #3603, black plate, clear flat bottom). For” for “For”

[3] = biological target: His-tagged human recombinant kinase full-length Akt1 (Homo sapiens (Human), UniProt P31749); experiment: Akt1 kinase assay (TR-FRET); assay type: biochemical; conditions: 10 μM ATP; read-out: Akt1, median IC50
Chain of His-tagged human recombinant kinase full-length Akt1 (P31749 whole entry): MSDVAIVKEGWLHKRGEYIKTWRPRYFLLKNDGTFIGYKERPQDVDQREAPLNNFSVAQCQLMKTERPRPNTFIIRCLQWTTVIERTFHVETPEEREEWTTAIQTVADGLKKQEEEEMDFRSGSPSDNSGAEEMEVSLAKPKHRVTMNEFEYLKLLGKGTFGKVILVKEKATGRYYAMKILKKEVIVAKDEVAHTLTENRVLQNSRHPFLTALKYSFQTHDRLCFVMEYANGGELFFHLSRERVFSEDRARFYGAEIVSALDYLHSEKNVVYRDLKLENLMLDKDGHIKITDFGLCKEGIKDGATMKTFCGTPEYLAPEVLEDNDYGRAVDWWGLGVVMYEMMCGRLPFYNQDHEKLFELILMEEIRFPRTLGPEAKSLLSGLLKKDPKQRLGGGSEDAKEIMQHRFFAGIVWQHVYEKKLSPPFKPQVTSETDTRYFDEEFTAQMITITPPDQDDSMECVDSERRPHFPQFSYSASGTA
Method: Biological Assay 1.0: Akt1 Kinase Assay
Akt1 inhibitory activity of compounds of the present invention was quantified employing the Akt1 TR-FRET assay as described in the following paragraphs.
As substrate for the kinase reaction the biotinylated peptide biotin-Ahx-[…] (C-terminus in amide form) was used which can be purchased e.g. from the company Biosynthan GmbH (Berlin-Buch, Germany).
For the assay 50 nl of a 100 fold concentrated solution of the test compound in DMSO was pipetted into a black low volume 384 well microtiter plate (Greiner Bio-One, Frickenhausen, Germany), 2 μl of a solution of Akt1 in assay buffer [50 mM TRIS/HCl pH 7.5, 5 mM MgCl2, 1 mM dithiothreitol, 0.02% (v/v) Triton X-100 (Sigma)] were added and the mixture was incubated for 15 min at 22° C. to allow prebinding of the test compounds to the enzyme before the start of the kinase reaction. […] The concentration of Akt1 in the assay was adjusted depending of the activity of the enzyme lot and was chosen appropriate to have the assay in the linear range, typical enzyme concentrations were in the range of about 0.05 ng/μl (final conc. in the 5 μl assay volume).
The resulting mixture was incubated 1 h at 22° C. to allow the binding of the biotinylated phosphorylated peptide to the streptavidine-XL665 and the antibodies. Subsequently the amount of phosphorylated substrate was evaluated by measurement of the resonance energy transfer from the anti-mouse-IgG-Eu-Chelate to the streptavidine-XL665.

SMILES	IC50 [1] [nM]	IC50 ([2]; KPL4, 72h drug exposure) [nM]	IC50 (MCF7) [nM]	IC50 [3] [nM]	IC50 ([2]; 72h drug exposure) [nM]
COC(=O)c1cc(OC)c2nc(-c3ccc(C4(N)CCC4)cc3)c(-c3ccccc3)n2c1 [Example 1-12]	276	8300	800	–	–
NC1(c2ccc(-c3nc4c(-c5ccc6cn[nH]c6c5)cccn4c3-c3ccccc3)cc2)CCC1 [Example 2-72]	814	2100	1700	390	–
NC1(c2ccc(-c3nc4c(-c5ccn[nH]5)cccn4c3-c3ccccc3)cc2)CCC1 [Example 2-71]	153	1900	1600	64	–
COc1cncc(-c2cccn3c(-c4ccccc4)c(-c4ccc(C5(N)CCC5)cc4)nc23)c1 [Example 2-70]	298	2000	1600	–	–
NC1(c2ccc(-c3nc4c(-c5cccc(F)c5)cccn4c3-c3ccccc3)cc2)CCC1 [Example 2-69]	796	2900	1800	208	–
NC1(c2ccc(-c3nc4ccc(-c5ncc[nH]5)cn4c3-c3ccccc3)cc2)CCC1 [Example 2-130]	731	8400	1800	321	–
COC(=O)c1cccn2c(-c3ccccc3)c(-c3ccc(C4(N)CCC4)cc3)nc12 [Example 2-23]	1010	9800	–	47	–
NC1(c2ccc(-c3nc4cc(-c5cc[nH]n5)ccn4c3-c3ccccc3)cc2)CCC1 [Example 2-112]	66	1700	–	153	–
CC(=O)c1ccn2c(-c3ccccc3)c(-c3ccc(C4(N)CCC4)cc3)nc2c1 [Example 2-128]	471	4400	1700	175	–
NC1(c2ccc(-c3nc4cc(-n5cccn5)ccn4c3-c3ccccc3)cc2)CCC1 [Example 1-11]	37	1500	–	102	–
COc1ccn2c(-c3ccccc3)c(-c3ccc(C4(N)CCC4)cc3)nc2c1 [Example 2-8]	237	1800	–	96	–
COC(=O)c1cc(Cl)c2nc(-c3ccc(C4(N)CCC4)cc3)c(-c3ccccc3)n2c1 [Example 2-60]	655	7700	–	31	–
NC1(c2ccc(-c3nc4ccc(-n5cccn5)cn4c3-c3ccccc3)cc2)CCC1 [Example 1-16]	359	2000	1800	–	–
COC(=O)/C=C/c1ccn2c(-c3ccccc3)c(-c3ccc(C4(N)CCC4)cc3)nc2c1 [Example 2-123]	268	2400	–	345	–
N#Cc1ccn2c(-c3ccccc3)c(-c3ccc(C4(N)CCC4)cc3)nc2c1 [Example 2-6]	333	1600	–	145	–
CCOc1ccc2nc(-c3ccc(C4(N)CCC4)cc3)c(-c3ccccc3)n2c1 [Example 2-107, 1-[4-(6-ethoxy-3-phenyl-imidazo[1,2-a]pyridin-2-yl)-phenyl]-cyclobutylamine]	253	1700	–	204	–
NC1(c2ccc(-c3nc4cc(-c5ccc(F)cc5)ccn4c3-c3ccccc3)cc2)CCC1 [Example 2-34]	1940	2200	–	989	–
C=Cc1ccn2c(-c3ccccc3)c(-c3ccc(C4(N)CCC4)cc3)nc2c1 [Example 2-108, 1-[4-(3-phenyl-7-vinyl-imidazo[1,2-a]pyridin-2-yl)-phenyl]-cyclobutylamine]	3100	10000	–	1950	–
NC1(c2ccc(-c3nc4nc(OCCN5CCCC5=O)ccn4c3-c3ccccc3)cc2)CCC1 [Example 2-64]	203	3200	–	1660	–
COCCOc1ccn2c(-c3ccccc3)c(-c3ccc(C4(N)CCC4)cc3)nc2n1 [Example 2-27]	111	1900	–	1190	–

Second part, the compound after the results:

IC50 [1] [nM]	IC50 ([2]; KPL4, 72h drug exposure) [nM]	IC50 (MCF7) [nM]	IC50 [3] [nM]	IC50 ([2]; 72h drug exposure) [nM]	SMILES
384	4700	1700	327	–	CNC(=O)Nc1ccc2nc(-c3ccc(C4(N)CCC4)cc3)c(-c3ccccc3)n2c1 [Example 2-158]
720	7500	1700	2150	–	CON(C)C(=O)c1ccn2c(-c3ccccc3)c(-c3ccc(C4(N)CCC4)cc3)nc2c1 [Example 2-154]
965	10000	1100	–	–	NC(=O)Nc1ccc2nc(-c3ccc(C4(N)CCC4)cc3)c(-c3ccccc3)n2c1 [Example 2-157]
90	1700	–	397	–	NC(=O)COc1ccn2c(-c3ccccc3)c(-c3ccc(C4(N)CCC4)cc3)nc2c1 [Example 9-1]
89	1700	900	81	–	COc1cc(-c2cn[nH]c2)cn2c(-c3ccccc3)c(-c3ccc(C4(N)CCC4)cc3)nc12 [Example 13-0, 1-{4-[8-methoxy-3-phenyl-6-(1H-pyrazol-4-yl)-imidazo[1,2-a]pyridin-2-yl]-phenyl}-cyclobutylamine]
30	1300	600	141	–	N#Cc1cc(Cl)c2nc(-c3ccc(C4(N)CCC4)cc3)c(-c3ccccc3)n2c1 [Example 15-0, 2-[4-(1-aminocyclobutyl)phenyl]-8-chloro-3-phenylimidazo[1,2-a]pyridine-6-carbonitrile]
1270	10000	–	12700	–	NC(=O)CCc1ccn2c(-c3ccccc3)c(-c3ccc(C4(N)CCC4)cc3)nc2c1 [Example 8-0, 3-{2-[4-(1-amino-cyclobutyl)-phenyl]-3-phenyl-imidazo[1,2-a]pyridin-7-yl}-propionamide]
88	1700	–	171	–	NC1(c2ccc(-c3nc4ccc(-c5cc[nH]n5)cn4c3-c3ccccc3)cc2)CCC1 [Example 2-131]
185	1800	1700	554	–	CC(=O)Nc1ccn2c(-c3ccccc3)c(-c3ccc(C4(N)CCC4)cc3)nc2c1 [Example 2-152]
923	2500	–	158	–	COC(=O)COc1ccn2c(-c3ccccc3)c(-c3ccc(C4(N)CCC4)cc3)nc2c1 [Example 9-0, {2-[4-(1-amino-cyclobutyl)-phenyl]-3-phenyl-imidazo[1,2-a]pyridin-7-yloxy}-acetic acid methyl ester]
114	2600	–	347	–	NC(=O)/C=C/c1ccc2nc(-c3ccc(C4(N)CCC4)cc3)c(-c3ccccc3)n2c1 [Example 2-142]
361	–	–	196	5300	COC(=O)/C=C/c1ccc2nc(-c3ccc(C4(N)CCC4)cc3)c(-c3ccccc3)n2c1 [Example 2-141]
